Source: US20040122083A1, “Antitubulin assembly and cell growth inhibitor denominated "dioxostatin"” (priority 2003, published 2004)
≈ marks a conversion by molar mass, not a printed value. Where two headings read alike, the source gives them in different places. Each block holds one compound with its values, some of them ahead of it.

What was measured:
cancer cell growth = details: cited from earlier work; for activity as cancer cell growth inhibitors: initial finding
[1] = system: the ten bacteria and fungi tested; assay: Disk susceptibility testing, whole panel; assay type: cell-based; details: at 100 μg/disk
Source text: (§1) Antimicrobial susceptibility testing. […] Eur. J. Med. Chem. 1998, 33, 71-77).

solid tumors = details: cited from earlier work
colchicine binding = details: at equal concentrations; cited from earlier work
Neisseria gonorrhoeae = assay: Disk susceptibility testing; assay type: cell-based
Source text: as §1

Staphylococcus aureus = assay: Disk susceptibility testing; assay type: cell-based
Source text: as §1

tubulin [2] = molecular target: T1, tubulin (Bos taurus, UniProt P81947+Q6B856); assay: Inhibition of [3H]colchicine binding to tubulin
T1 sequence (Q6B856 whole entry): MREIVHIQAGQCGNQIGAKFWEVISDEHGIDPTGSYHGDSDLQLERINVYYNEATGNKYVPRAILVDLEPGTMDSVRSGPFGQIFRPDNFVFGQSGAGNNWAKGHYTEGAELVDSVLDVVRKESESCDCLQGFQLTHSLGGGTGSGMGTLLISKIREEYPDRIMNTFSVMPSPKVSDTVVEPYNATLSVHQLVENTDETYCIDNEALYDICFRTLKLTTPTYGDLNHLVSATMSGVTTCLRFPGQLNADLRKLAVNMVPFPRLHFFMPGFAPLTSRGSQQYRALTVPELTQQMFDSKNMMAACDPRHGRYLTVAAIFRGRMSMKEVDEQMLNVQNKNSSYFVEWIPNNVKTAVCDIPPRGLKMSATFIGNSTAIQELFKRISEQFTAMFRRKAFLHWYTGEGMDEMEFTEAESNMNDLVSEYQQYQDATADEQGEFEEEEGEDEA
T1 sequence (P81947 whole entry): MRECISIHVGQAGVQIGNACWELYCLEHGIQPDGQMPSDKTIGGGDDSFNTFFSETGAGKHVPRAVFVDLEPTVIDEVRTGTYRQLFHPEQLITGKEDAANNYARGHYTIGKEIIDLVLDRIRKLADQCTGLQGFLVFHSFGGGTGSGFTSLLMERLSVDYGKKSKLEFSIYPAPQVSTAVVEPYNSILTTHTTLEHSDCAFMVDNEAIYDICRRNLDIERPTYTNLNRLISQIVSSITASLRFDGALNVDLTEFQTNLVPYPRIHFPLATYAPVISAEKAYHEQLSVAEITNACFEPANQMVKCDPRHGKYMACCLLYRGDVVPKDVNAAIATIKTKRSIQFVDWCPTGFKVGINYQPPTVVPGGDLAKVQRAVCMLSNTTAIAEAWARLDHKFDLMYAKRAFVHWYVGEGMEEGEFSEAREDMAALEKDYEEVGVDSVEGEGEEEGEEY
Method: (§2) Tubulin assays. The tubulin polymerizion and colchicine binding experiments were performed as described previously (See: Verdier-Pinard, P.; Lai, J -Y.; Yoo, H -D.; Yu, J.; Marquez, B.; Nagle, D. G.; Nambu, M.; White, J. D.; Falck, J. R; Gerwick, W. H.; Day, B. W.; Hamel, E. Mol. Pharmacol. 1998, 53, 62-76). However, in the polymerization assays Beckman DU7400/7500 spectrophotometers equipped with “high performance” temperature controllers were used. […] Temperature changes were, however, more rapid, with the jump from the lower temperature to 30EC taking about 20 sec and the reverse jump about 100 sec.

BXPC-3 = assay: Human cancer cell line growth inhibition, Pancreas-a BXPC-3; assay type: cell-based; details: for GI50: Homo sapiens
NCI-H460 = assay: Human cancer cell line growth inhibition, Lung-NSC NCI-H460; assay type: cell-based; details: for GI50: Homo sapiens
SW1736 = assay: Human cancer cell line growth inhibition, Thyroid ca SW1736; assay type: cell-based; details: for GI50: Homo sapiens, SW-1736
DU-145 = assay: Human cancer cell line growth inhibition, Prostate DU-145; assay type: cell-based; details: for GI50: Homo sapiens
FADU = assay: Human cancer cell line growth inhibition, Pharynx-sq FADU; assay type: cell-based; details: for GI50: Homo sapiens, FaDu
Streptococcus pneumoniae = assay: Disk susceptibility testing; assay type: cell-based
Source text: as §1

OVCAR-3 = assay: Human cancer cell line growth inhibition, Ovarian OVCAR-3; assay type: cell-based; details: for GI50: Homo sapiens
SK-N-SH = assay: Human cancer cell line growth inhibition, Neuroblast SK-N-SH; assay type: cell-based; details: for GI50: Homo sapiens
tubulin [3] = molecular target: T1, tubulin; assay: Inhibition of tubulin polymerization (assembly); assay type: biochemical
Method: as §2

KM20L2 = assay: Human cancer cell line growth inhibition, Colon KM20L2; assay type: cell-based; details: for GI50: Homo sapiens, KM-20L2
SF-295 = assay: Human cancer cell line growth inhibition, CNS SF-295; assay type: cell-based; details: for GI50: Homo sapiens
A498 = assay: Human cancer cell line growth inhibition, Renal A498; assay type: cell-based; details: for GI50: Homo sapiens
Cryptococcus neoformans = system: Cryptococcus neoformans
Source text: as §1

Candida albicans = system: Candida albicans
Source text: as §1

[4] = system: Stenotrophomonas maltophilia
Source text: as §1

Aqueous solubility = assay type: physicochemical
[5] = read-out: % Inhibition Colchicine binding ± SD
[6] = Table II, tubulin concentration 10 μM, read-out: Inhibition of tubulin Polymerization IC50 ± SD
[7] = Table IV and text, read-out: Inhibition of Tubulin Assembly IC50 ± SD

Structure (SMILES): COc1ccc(/C=C/c2cc(OC)c(OC)c(OC)c2)cc1O [Compound 2d]
activity as cancer cell growth inhibitor (cancer cell growth; freshly prepared solutions in dimethyl sulfoxide): inactive
activity as cancer cell growth inhibitors (cancer cell growth): moderately active
Microbe(s) inhibited, whole panel [1]: * (at 100 μg/disk, no inhibition of the ten bacteria and fungi tested)

Structure (SMILES): COc1ccc(/C=C\c2cc(OC)c(OC)c(OC)c2)c(O)c1O [Compound 1a, combretastatin A-1, reference compound]
degree of reduction, vascular shutdown within solid tumors (solid tumors): 50%
inhibition of colchicine binding (colchicine binding): ~99%
Minimum inhibitory Concentration (Neisseria gonorrhoeae): 25-50 μg/disk
Minimum inhibitory Concentration (Staphylococcus aureus): 50-100 μg/disk
inhibition at 1 µM (tubulin [2]; [5]): 89 ± 3%
inhibition at 5 µM (tubulin [2]; [5]): 99.6%

Structure (SMILES): COc1ccc(/C=C\c2cc(OC)c(OC)c(OC)c2)cc1OP(=O)([O-])[O-].[Na+].[Na+] [Compound 1d]
vascular shutdown within metastatic tumors (solid tumors; doses one-tenth of the maximum tolerated dose): complete vascular shutdown

Structure (SMILES): COc1ccc([C@H](O)[C@@H](O)c2cc(OC)c(OC)c(OC)c2)cc1O [(S,S)-4a]
Pancreas-a BXPC-3 GI50 (BXPC-3): 3.9 µg/mL
Lung-NSC NCI-H460 GI50 (NCI-H460): 2.5 µg/mL
Thyroid ca SW1736 GI50 (SW1736): 1.8 µg/mL
Prostate DU-145 GI50 (DU-145): 2.1 µg/mL
Pharynx-sq FADU GI50 (FADU): 0.60 µg/mL
Minimum inhibitory Concentration (Streptococcus pneumoniae): 25-50 μg/disk
Ovarian OVCAR-3 GI50 (OVCAR-3): 0.38 µg/mL
Neuroblast SK-N-SH GI50 (SK-N-SH): 0.28 µg/mL
IC50 (tubulin [3]; [6]): 14 ± 2 µM
Colon KM20L2 GI50 (KM20L2): 0.52 µg/mL
CNS SF-295 GI50 (SF-295): 0.52 µg/mL
Renal A498 GI50 (A498): 0.91 µg/mL

Pancreas-a BXPC-3 GI50 (BXPC-3): >10 µg/mL
Lung-NSC NCI-H460 GI50 (NCI-H460): >10 µg/mL
Prostate DU-145 GI50 (DU-145): >10 µg/mL
Ovarian OVCAR-3 GI50 (OVCAR-3): >10 µg/mL
% Inhibition Colchicine binding ± SD (tubulin [2]; 5 μM Inhibitor): 14 ± 5%
% Inhibition Colchicine binding ± SD (tubulin [2]; 50 μM Inhibitor): 57 ± 0.8%
IC50 (tubulin [3]; [7]): 5.7 ± 0.8 µM
Colon KM20L2 GI50 (KM20L2): >10 µg/mL
CNS SF-295 GI50 (SF-295): 5.0 µg/mL
Structure (SMILES): COc1ccc([C@H]2OCO[C@@H]2c2cc(OC)c(OC)c(OC)c2)c(O)c1O [(R,R)-10a, (4R,5R)-4-(2′,3′-Dihydroxy-4′-methoxyphenyl)-5-(3″,4″,5″-trimethoxyphenyl)-1,3-dioxolane]

Structure (SMILES): COc1ccc([C@H](O)[C@@H](O)c2cc(OC)c(OC)c(OC)c2)c(O)c1O [(S,S)-4b]
GI50 (BXPC-3): > 10 µg/mL
GI50 (NCI-H460): > 10 µg/mL
GI50 (SW1736): > 10 µg/mL
GI50 (DU-145): > 10 µg/mL
GI50 (FADU): > 10 µg/mL
Minimum inhibitory Concentration (Neisseria gonorrhoeae): 25-50 μg/disk
GI50 (OVCAR-3): > 10 µg/mL
GI50 (SK-N-SH): 3.8 µg/mL (≈ 10.4 µM)
melting point: 64 to 66 °C
GI50 (KM20L2): > 10 µg/mL
GI50 (SF-295): 2.9 µg/mL (≈ 7.92 µM)
GI50 (A498): > 10 µg/mL

Structure (SMILES): COc1ccc(/C=C/c2cc(OC)c(OC)c(OC)c2)c(O)c1O [Compound 2b, E-combretastatin A-1]
Minimum inhibitory Concentration (Neisseria gonorrhoeae): 6.25-12.5 μg/disk
Minimum inhibitory Concentration (Streptococcus pneumoniae): 50-100 μg/disk
activity as cancer cell growth inhibitors (cancer cell growth): moderately active
Minimum inhibitory Concentration (Cryptococcus neoformans): 50-100 μg/disk
Minimum inhibitory Concentration (Candida albicans): 50-100 μg/disk
Minimum inhibitory Concentration [4]: 50-100 μg/disk

Pancreas-a BXPC-3 GI50 (BXPC-3): 5.4 µg/mL
Lung-NSC NCI-H460 GI50 (NCI-H460): >10 µg/mL
Prostate DU-145 GI50 (DU-145): 3.0 µg/mL
Ovarian OVCAR-3 GI50 (OVCAR-3): 4.3 µg/mL
% Inhibition Colchicine binding ± SD (tubulin [2]; 1 μM Inhibitor): 67 ± 6%
% Inhibition Colchicine binding ± SD (tubulin [2]; 5 μM Inhibitor): 91 ± 1%
IC50 (tubulin [3]; [7]): 0.59 µM
Colon KM20L2 GI50 (KM20L2): 5.0 µg/mL
CNS SF-295 GI50 (SF-295): 2.9 µg/mL
Structure (SMILES): COc1ccc([C@@H]2OCO[C@H]2c2cc(OC)c(OC)c(OC)c2)c(O)c1O [(S,S)-9a, (4S,5S)-4-(2′,3′-dihydroxy-4′-methoxyphenyl)-5-(3″,4″,5″-trimethoxyphenyl)-1,3-dioxolane]

Structure (SMILES): COc1ccc([C@@H](O)[C@H](O)c2cc(OC)c(OC)c(OC)c2)cc1O [(R,R)-3a]
Pancreas-a BXPC-3 GI50 (BXPC-3): >10 µg/mL
Lung-NSC NCI-H460 GI50 (NCI-H460): 4.4 µg/mL
Thyroid ca SW1736 GI50 (SW1736): 6.1 µg/mL
Prostate DU-145 GI50 (DU-145): 3.5 µg/mL
Pharynx-sq FADU GI50 (FADU): 2.1 µg/mL
Minimum inhibitory Concentration (Streptococcus pneumoniae): 50-100 μg/disk
Ovarian OVCAR-3 GI50 (OVCAR-3): 4.5 µg/mL
Neuroblast SK-N-SH GI50 (SK-N-SH): 1.5 µg/mL
IC50 (tubulin [3]; [6]): > 40 µM
Colon KM20L2 GI50 (KM20L2): 8.2 µg/mL
CNS SF-295 GI50 (SF-295): 5.7 µg/mL
Renal A498 GI50 (A498): >10 µg/mL

Structure (SMILES): COc1cc([C@@H]2OCO[C@H]2c2ccc(OC)c(OP(=O)([O-])[O-])c2OP(=O)([O-])[O-])cc(OC)c1OC.[Na+].[Na+].[Na+].[Na+] [(S,S)-21, Tetrasodium-(4S,5S)-4-(2′,3′-O-diphosphonate-4′-methoxyphenyl)-5-(3″,4″,5″-trimethoxyphenyl)-1,3-dioxolane]
GI50 (BXPC-3): > 10 µg/mL
GI50 (NCI-H460): 3.4 µg/mL
GI50 (DU-145): 2.9 µg/mL
GI50 (OVCAR-3): 2.6 µg/mL
solubility (Aqueous solubility): > 35 mg/mL
GI50 (KM20L2): > 10 µg/mL
GI50 (SF-295): 3.2 µg/mL

Structure (SMILES): COc1ccc([C@@H](O)[C@H](O)c2cc(OC)c(OC)c(OC)c2)c(O)c1O [(R,R)-3b, (1R,2R)-1,2-Dihydroxy-1-(2′,3′-dihydroxy-4′-methoxyphenyl)-2-(3″,4″,5″-trimethoxyphenyl)-ethane]
GI50 (BXPC-3): > 10 µg/mL
GI50 (NCI-H460): 7.9 µg/mL (≈ 21.6 µM)
GI50 (SW1736): > 10 µg/mL
GI50 (DU-145): > 10 µg/mL
GI50 (FADU): 4.9 µg/mL (≈ 13.4 µM)
GI50 (OVCAR-3): 7.2 µg/mL (≈ 19.7 µM)
GI50 (SK-N-SH): 3.1 µg/mL (≈ 8.46 µM)
Microbe(s) inhibited, whole panel [1]: * (at 100 μg/disk, no inhibition of the ten bacteria and fungi tested)
melting point: 64 to 66 °C
GI50 (KM20L2): 7 µg/mL (≈ 19.1 µM)
GI50 (SF-295): 2.6 µg/mL (≈ 7.1 µM)
GI50 (A498): > 10 µg/mL

Structure (SMILES): COc1ccc(/C=C\c2cc(OC)c(OC)c(OC)c2)cc1O [Compound 1b, combretastatin A-4]
degree of reduction, vascular shutdown within solid tumors (solid tumors): 70%
